The text below walks through data of the RepoRT retention time repository (doi:10.1021/acs.analchem.2c02893).

This series is described as follows: RP, Thermo Scientific Acclaim RSLC 120 C18, 100 × 2.1 mm, 2.2 µm, 30 °C, 0.2 mL/min, estimated dead time 1.1 min; A: 90% water + 10% methanol + 0.01% formic acid + 5 mM ammonium formate, pH 3.61; B: methanol + 0.01% formic acid + 5 mM ammonium formate, pH 3.61; gradient (min/%B) 0/1 1/1 2/39 13/99.9 15/99.9 15.1/1 20.1/1. The following applies: stereoisomer not certain.
With `CN(C)CCCC1(c2ccc(F)cc2)OCc2cc(C#N)ccc21` (configuration not stated) [Citalopram], the LC retention time was 6.59 min. In the case of `CCC1OC(=O)C(C)C(OC2CC(C)(OC)C(O)C(C)O2)C(C)C(OC2OC(C)CC(NC)C2O)C(C)(OC)CC(C)C(=O)C(C)C(O)C1(C)O` (configuration not stated) [Clarithromycin-N-desmethyl], the LC retention time is 9.16 min. Next, `CCC1OC(=O)C(C)C(OC2CC(C)(OC)C(O)C(C)O2)C(C)C(OC2OC(C)CC(N(C)C)C2O)C(C)(OC)CC(C)C(=O)C(C)C(O)C1(C)O` (configuration not stated) [Clarithromycin]: 9.18 min; `CN1CCCC1CCOC(C)(c1ccccc1)c1ccc(Cl)cc1` (configuration not stated) [Clemastine]: 9.31 min.

On to `CC(C)(C)NCC(O)c1cc(Cl)c(N)c(Cl)c1` (configuration not stated) [Clenbuterol], for which the LC retention time is 4.76 min.

Turning to `CNC(C)C(=O)c1ccc(Cl)cc1` (configuration not stated) [Clephedrone (4-Chloromethcathinone)], the LC retention time is 4.91 min. As to `CC(CC(=O)Nc1ccc(Cl)cc1Cl)N1CCCCC1` (configuration not stated) [Clibucaine], the LC retention time was 6.27 min. The result for `C[N+]12CCC(CC1)C(OC(=O)C(O)(c1ccccc1)c1ccccc1)C2` (configuration not stated) [Clidinium (I+)] reads 5.84 min; that for `CC(C)(C)C(=O)C(Oc1ccc(Cl)cc1)n1ccnc1` (configuration not stated) [Climbazole], 10.1 min. Regarding `CCCC1CC(C(=O)NC(C(C)Cl)C2OC(SC)C(O)C(O)C2O)N(C)C1` (configuration not stated) [Clindamycin], the LC retention time is 6.92 min. For `CN1C(=O)CC(=O)N(c2ccccc2)c2cc(Cl)ccc21` [Clobazam], the LC retention time was 8.08 min. The result for `CN(C)CCN1C(=O)c2ccccc2Nc2cc(Cl)ccc21` [Clobenzepam] reads 6.32 min; that for `CC(Cc1ccccc1)NCc1ccccc1Cl` (configuration not stated) [Clobenzorex], 6.82 min; that for `CCC(=O)OC1(C(=O)CCl)C(C)CC2C3CCC4=CC(=O)C=CC4(C)C3(F)C(O)CC21C` (configuration not stated) [Clobetasol propionate], 10.6 min. The result for `CC1CC2C3CCC4=CC(=O)C=CC4(C)C3(F)C(O)CC2(C)C1(O)C(=O)CCl` (configuration not stated) [Clobetasol] reads 9.44 min.

Regarding `CCCC(=O)OC1(C(=O)CCl)C(C)CC2C3CCC4=CC(=O)C=CC4(C)C3(F)C(=O)CC21C` (configuration not stated) [Clobetasone butyrate], the LC retention time is 11.3 min. Next, `CC(CN(C)C)C(C)(O)Cc1ccc(Cl)cc1` (configuration not stated) [Clobutinol]: 6.31 min.

As to `C#CCOC(=O)C(C)Oc1ccc(Oc2ncc(Cl)cc2F)cc1` (configuration not stated) [Clodinafop-propargyl], the LC retention time was 10.7 min. `Clc1ccccc1-c1nnc(-c2ccccc2Cl)nn1` [Clofentezine]: the LC retention time is 11.5 min. On to `CCOC(=O)C(C)(C)Oc1ccc(Cl)cc1` [Clofibrate], for which the LC retention time is 11 min.

With `CC1(C)CON(Cc2ccccc2Cl)C1=O` [Clomazone  (Command)], the LC retention time is 8.89 min. Next, `Cc1ncsc1CCCl` [Clomethiazole]: 6.69 min; `CN(C)CCCN1c2ccccc2CCc2ccc(Cl)cc21` [Clomipramine]: 9.21 min; `Nc1ccc2c(c1)C(c1ccccc1Cl)=NCC(=O)N2` [Clonazepam- 7-Amino]: 4.86 min. In the case of `O=C1CN=C(c2ccccc2Cl)c2cc([N+](=O)[O-])ccc2N1` [Clonazepam], the LC retention time was 7.61 min.

On to `Cc1nnc2n1-c1ccc([N+](=O)[O-])cc1C(c1ccccc1Cl)=NC2` [Clonazolam], for which the LC retention time was 7.24 min.

`Clc1cccc(Cl)c1NC1=NCCN1` [Clonidine]: the LC retention time was 3.83 min. Next, `CC1CCCC(C)N1NC(=O)c1ccc(Cl)c(S(N)(=O)=O)c1` (configuration not stated) [Clopamide]: 6.01 min; `Clc1ccc(C(OCCN2CCCCC2)c2ccccc2)cc1` (configuration not stated) [Cloperastine]: 8.46 min. The result for `O=C(O)C(c1ccccc1Cl)N1CCc2sccc2C1` (configuration not stated) [Clopidogrel Carbon acid] reads 5.56 min; that for `COC(=O)C(c1ccccc1Cl)N1CCc2sccc2C1` (configuration not stated) [Clopidogrel], 11.8 min.

Consider `Cc1[nH]c(C)c(Cl)c(=O)c1Cl` [Clopidol], for which the LC retention time was 4.2 min. On to `O=C(O)c1nc(Cl)ccc1Cl` [Clopyralid], for which the LC retention time was 3.06 min. The result for `CC(C)NCC(O)c1ccccc1Cl` (configuration not stated) [Clorprenaline] reads 4.76 min. On to `CNC(=N[N+](=O)[O-])NCc1cnc(Cl)s1` [Clothiandin], for which the LC retention time was 4.9 min. The result for `CN1CCN(C2=Nc3ccccc3Sc3ccc(Cl)cc32)CC1` [Clothiapine] reads 8.96 min; that for `CCc1cc2c(s1)N(C)C(=O)CN=C2c1ccccc1Cl` [Clotiazepam], 10.2 min; that for `Clc1ccccc1C(c1ccccc1)(c1ccccc1)n1ccnc1` [Clotrimazole], 11.2 min. The result for `Clc1ccc2c(c1)N=C(N1CCNCC1)c1ccccc1N2` [Clozapine-Nor] reads 7.29 min.

In the case of `CN1CCN(C2=Nc3cc(Cl)ccc3Nc3ccccc32)CC1` [Clozapine], the LC retention time was 7.19 min.

Regarding `CCOC(=O)C1C(OC(=O)c2ccccc2)CC2CCC1N2C` (configuration not stated) [Cocaethylene], the LC retention time was 5.46 min. The result for `COC(=O)C1C(OC(=O)c2ccccc2)CC2CCC1N2C` (configuration not stated) [Cocaine] reads 4.84 min. The result for `COc1ccc2c3c1OC1C(O)CCC4C(C2)N(C)CCC341` (configuration not stated) [Codeine-Dihydro] reads 3.36 min; that for `COc1ccc2c3c1OC1C(O)C=CC4C(C2)NCCC341` (configuration not stated) [Codeine-Nor], 3.5 min; that for `COc1ccc2c3c1OC1C(O)C=CC4C(C2)N(C)CCC341` (configuration not stated) [Codeine], 3.4 min. The result for `CC12CCC(=O)C=C1CCC1C2C(O)CC2(C)C(C(=O)CO)CCC12` (configuration not stated) [Corticosterone] reads 8.74 min. Consider `CC12CCC(=O)C=C1CCC1C2C(=O)CC2(C)C1CCC2(O)C(=O)CO` (configuration not stated) [Cortisone E  (4-Pregnene-17.21-diol-3.11.20-trione)], for which the LC retention time is 7.41 min. The result for `CN1C(=O)C(O)CC1c1cccnc1` (configuration not stated) [Cotinine-Hydroxy] reads 3.13 min; that for `CC(=O)CC(c1ccc(Cl)cc1)c1c(O)c2ccccc2oc1=O` (configuration not stated) [Coumachlor], 10.2 min. As to `CCOP(=S)(OCC)Oc1ccc2c(C)c(Cl)c(=O)oc2c1` [Coumaphos], the LC retention time was 11.2 min. Next, `Cc1cc(N(C)C)nc(Cl)n1` [Crimidine]: 6.2 min. Next, `C=C(c1ccccc1OCc1cccc(Cl)c1)n1ccnc1` [Croconazole]: 10.7 min; `CC=CC(=O)N(CC)c1ccccc1C` [Crotamiton]: 9.24 min; `CC=CC(=O)N(CC)C(CC)C(=O)N(C)C` (configuration not stated) [Crotethamide]: 6.13 min. Next, `COP(=O)(OC)OC(C)=CC(=O)OC(C)c1ccccc1` (configuration not stated) [Crotoxyphos]: 9.39 min. On to `CNP(=O)(OC)Oc1ccc(C(C)(C)C)cc1Cl` (configuration not stated) [Crufomate], for which the LC retention time was 10.5 min. Next, `CCCCCn1nc(C(=O)NC(C)(C)c2ccccc2)c2ccccc21` [Cumyl-PINACA]: 12.5 min.

With `CC(CN(C)C)CN1c2ccccc2Sc2ccc(C#N)cc21` (configuration not stated) [Cyamemazine], the LC retention time was 7.52 min.

Take `CCNc1nc(Cl)nc(NC(C)(C)C#N)n1` [Cyanazine]: the LC retention time was 6.55 min.

In the case of `CCOP(=S)(Oc1ccc(C#N)cc1)c1ccccc1` (configuration not stated) [Cyanofenphos], the LC retention time was 10.9 min. The result for `COP(=S)(OC)Oc1ccc(C#N)cc1` [Cyanophos] reads 8.27 min; that for `Cc1ccc(-c2c(Cl)nc(C#N)n2S(=O)(=O)N(C)C)cc1` [Cyazofamid], 10.3 min; that for `O=S(=O)(O)NC1CCCCC1` [Cyclamic acid], 6.99 min. Next, `CN1CCN(C(c2ccccc2)c2ccccc2)CC1` [Cyclizine]: 6.94 min. As for `CCSC(=O)N(CC)C1CCCCC1` [Cycloate], the LC retention time was 11.7 min. As to `CN(C)CCC=C1c2ccccc2C=Cc2ccccc21` [Cyclobenzaprine], the LC retention time was 7.95 min. Next, `CC1CC(C)C(=O)C(C(O)CC2CC(=O)NC(=O)C2)C1` (configuration not stated) [Cycloheximide]: 5.99 min; `CN(C)CCOC(=O)C(c1ccccc1)C1(O)CCCC1` (configuration not stated) [Cyclopentolate]: 6.16 min; `CCCc1nn(C)c2c(=O)[nH]c(-c3cc(S(=O)(=O)N4CCN(C5CCCC5)CC4)ccc3OCC)nc12` [Cyclopentynafil]: 9.01 min. The result for `O=P1(N(CCCl)CCCl)NCCCO1` (configuration not stated) [Cyclophosphamide] reads 6.24 min. The result for `COc1cc(C=C2CCCC(=Cc3ccc(O)c(OC)c3)C2=O)ccc1O` [Cyclovalone] reads 9.59 min. For `CN(C)C(=O)NC1CCCCCCC1` [Cycluron], the LC retention time was 8.47 min. The result for `CC1(C)C(C=C(Cl)Cl)C1C(=O)OC(C#N)c1ccc(F)c(Oc2ccccc2)c1` (configuration not stated) [Cyfluthrin (Baythroid)] reads 13 min. Next, `CC1(C)C(C=C(Cl)C(F)(F)F)C1C(=O)OC(C#N)c1cccc(Oc2ccccc2)c1` (configuration not stated) [Cyhalothrin (lambda-)]: 13 min; `CCNC(=O)NC(=O)C(C#N)=NOC` [Cymoxanil]: 5.6 min; `CC(C)Nc1nc(Cl)nc(NC2CC2)n1` [Cyprazin]: 8.22 min. The result for `CC(C1CC1)C(O)(Cn1cncn1)c1ccc(Cl)cc1` (configuration not stated) [Cyproconazole] reads 9.89 min.
